# Measurements from patent publication US10323043B2, “Derivatives of macrocyclic N-aryl-tricyclopyrimidine-2-amine polyethers as inhibitors of FTL3 and JAK” (PIERRE FABRE MEDICAMENT, priority 2014, dated 2019).
# pIC50: −log10 of the molar value.
# Target: T1, FLT3^D835Y (Homo sapiens, UniProt P36888, D835Y)
# T1 construct: purchased Merck Millipore 14-610
# T1 sequence (P36888 27-993 D835Y): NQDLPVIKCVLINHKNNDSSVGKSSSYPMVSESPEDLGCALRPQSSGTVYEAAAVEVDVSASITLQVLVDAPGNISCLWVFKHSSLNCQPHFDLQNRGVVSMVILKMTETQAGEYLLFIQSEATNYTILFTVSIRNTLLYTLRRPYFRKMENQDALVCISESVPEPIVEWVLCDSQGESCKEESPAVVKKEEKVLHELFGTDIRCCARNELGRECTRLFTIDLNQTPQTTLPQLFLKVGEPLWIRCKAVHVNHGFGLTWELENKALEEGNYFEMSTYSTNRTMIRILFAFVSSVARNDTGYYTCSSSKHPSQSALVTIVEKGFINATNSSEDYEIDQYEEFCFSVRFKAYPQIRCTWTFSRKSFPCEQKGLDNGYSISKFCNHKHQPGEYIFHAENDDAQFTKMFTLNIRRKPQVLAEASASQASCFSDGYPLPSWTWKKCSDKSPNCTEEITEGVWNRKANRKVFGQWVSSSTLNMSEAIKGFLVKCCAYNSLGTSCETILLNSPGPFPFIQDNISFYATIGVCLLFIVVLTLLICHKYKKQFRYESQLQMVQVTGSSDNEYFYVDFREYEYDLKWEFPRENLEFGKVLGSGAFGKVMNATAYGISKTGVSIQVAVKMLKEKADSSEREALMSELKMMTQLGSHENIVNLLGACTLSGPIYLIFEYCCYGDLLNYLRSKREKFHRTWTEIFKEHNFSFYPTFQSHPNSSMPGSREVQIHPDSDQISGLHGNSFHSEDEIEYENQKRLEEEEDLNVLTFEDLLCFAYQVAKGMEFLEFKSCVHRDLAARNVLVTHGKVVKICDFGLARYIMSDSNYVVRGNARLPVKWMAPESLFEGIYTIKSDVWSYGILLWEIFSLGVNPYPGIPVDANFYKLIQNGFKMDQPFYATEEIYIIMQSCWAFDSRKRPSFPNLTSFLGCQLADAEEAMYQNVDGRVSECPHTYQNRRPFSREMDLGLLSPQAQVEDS
# Experiment: LanthaScreen TR-FRET binding test, FLT3 D835Y
# Conditions: FLT3^D835Y 15 nM, kinase tracer 236 3 nM, 25° C., 1 hour; read-out: Inhibition (IC50) of FLT3^D835Y enzyme
# Description: FLT3 (#PV3182), JAK2 (#PV4210) and JAK3 (#PV3855) recombinant enzymes were purchased from Life Technologies. FLT3-ITD (#0778-0000-1) and FLT3^D835Y (#14-610) proteins were purchased from ProQinase and Merck Millipore, respectively. All the tests were carried out in 384-well plates. The principle of these binding tests is based on the LanthaScreen® TR-FRET methodology from Life Technologies.
# The reaction mixture (15 μL total volume) contains the following compounds: 15 nM FLT3, FLT3-ITD or FLT3^D835Y, 3 nM kinase tracer 236 (Life Technologies, #PV5592) and 6 nM LanthaScreen® anti-GST antibody coupled to a europium chelate (Life Technologies, #PV5594) for FLT3-ITD and FLT3^D835Y or 6 nM LanthaScreen® anti-His antibody coupled to a europium chelate (Life Technologies, #PV5596) for FLT3.
# The compounds are evaluated at 8 different concentrations prepared by making dilutions from a starting 10 mM stock solution in dimethylsulfoxide (DMSO) (Sigma, #D8418). The final DMSO concentration in the test is 1%. The reaction is carried out at 25° C. for 1 hour and detected on the EnVision® reader (Perkin Elmer) according to the recommendations of the supplier, Life Technologies.
# The results are presented (Table 1) as the concentration values of the compound at which 50% of the kinase activity is inhibited, IC50 (μM), generated using the PRISM software (GraphPad).
row,SMILES,pIC50
1,c1cc(N2CCNCC2)c2cc1Nc1ncc3c(n1)-c1cc(ccc1CC3)OCCOCCO2 [Compound 5],9.18
2,c1cc(N2CC3CNCC3C2)c2cc1Nc1ncc3c(n1)-c1cc(ccc1CC3)OCCOCCO2 (stereo not shown) [Compound 29],8.72
3,CN(C)C1CCN(c2ccc3cc2OCCOCCOc2ccc4c(c2)-c2nc(ncc2CC4)N3)C1 (stereo not shown) [Compound 30],8.49
4,CN1CCN(c2ccc3cc2OCCOCCOc2ccc4c(c2)-c2nc(ncc2CC4)N3)CC1 [Compound 3],8.52

# Continued by rising pIC50, values first:
row,pIC50,SMILES
1,8.14,c1cc(N2CCC(N3CCOCC3)C2)c2cc1Nc1ncc3c(n1)-c1cc(ccc1CC3)OCCOCCO2 (stereo not shown) [Compound 7]
2,8.28,OC1CCN(c2ccc3cc2OCCOCCOc2ccc4c(c2)-c2nc(ncc2CC4)N3)CC1 [Compound 19]
3,8.35,CN1CC=C(c2ccc3cc2OCCOCCOc2ccc4c(c2)-c2nc(ncc2CC4)N3)CC1 [Compound 23]
4,8.49,c1cc(OCCN2CCCC2)c2cc1Nc1ncc3c(n1)-c1cc(ccc1CC3)OCCOCCO2 [Compound 14]
5,8.96,c1cc(N2CCC(N3CCCCC3)CC2)c2cc1Nc1ncc3c(n1)-c1cc(ccc1CC3)OCCOCCO2 [Compound 10]
6,9.00,CN1CCN(c2ccc3cc2OCCOCCOc2ccc4c(c2)-c2nc(ncc2CC4)N3)CC1(C)C [Compound 40]
